Source: patent publication US6693207B2, “B-ring estratriene diols” (Wyeth, priority 1997, dated 2004)

Tested on: uterine weight, immature rats
Assay: In vivo uterotropic activity
Set-up: species or system rat
Conditions: 0.2 and 2 mg/kg, three days, S.C.
Method: Immature rats were treated with doses of 0.2 and 2 mg/kg 5,7,9-estratriene-3β,17β-diol for three days (S.C.) as well as additional groups (n=6) of rats treated with 0.5 μg ethinyl estradiol and vehicle as positive and negative controls, respectively.

Structure (SMILES): C[C@]12CCc3c(ccc4c3CC[C@H](O)C4)[C@@H]1CC[C@@H]2O [5,7,9-estratriene-3β,17β-diol]
- uterine weight: uterine weight gains at both concentrations
